Where “and” joins values, the source holds several entries; their conditions need not be identical. Equal values may be shown once.
System: P. falciparum 3D7 growth, pLDH absorbance
Test: P. falciparum 3D7 growth inhibition, dose response, strain 3D7 (AID 2305)

Compound | IC50
O=C(/C=C/c1ccc(Cl)c(Cl)c1)NCCCCCN1CCC(NC(=O)Nc2cccc(Cl)c2Cl)CC1 | 670 nM
Clc1ncnc2ncn(Cc3cccc(Br)c3)c12 | 1060 nM
COC(=O)c1ccc(C[C@@H](C)NC[C@H](O)c2cccc(C(F)(F)F)c2)cc1 | 790 nM and 760 nM
CC(=O)N(Cc1ccc(CC(C)NCCc2cccc(Cl)c2)cc1)Cc1ccc(CC(C)NCCc2cccc(Cl)c2)cc1 (configuration not stated) | 780 nM
FC(F)(F)c1ccc2nccc(NN=Cc3cccc(Cl)c3)c2c1 | 820 nM
CCCc1ccc(NC(=O)c2cccc(CN3CCCN(Cc4cccc(O)c4)CC3)c2)cc1 | 750 nM
COc1cccc(O)c1CNCC(O)c1cccc(C(F)(F)F)c1 (configuration not stated) | 950 nM
Cc1ccc2c(c1)nc(N)n2C[C@H](O)c1ccccc1 | 580 nM
CN1CCC(C(=O)Nc2ccc(-c3cccc(-c4nc5ccc(F)cc5[nH]4)c3)cc2)CC1 | 790 nM
Cc1ccc(-c2ccc3c(c2)C=C(C(=O)NCC2CCN(CC4CCN(C(=O)/C=C/c5ccc(Cl)c(Cl)c5)CC4)CC2)CCC3)cc1 | 780 nM
COc1cc2c(Nc3ccc(NC(=O)c4ccccc4)cc3)ncnc2cc1OCCCN1CCOCC1 | 650 nM
Cc1ccc2nc(/C=C/c3cccc4cc[nH]c34)[nH]c2c1 | 1180 nM
CCCCCc1cc(OC(=O)CCCN(CC)CC)c2c(c1)OC(C)(C)C=C2C1=CCN(Cc2ccc3ccccc3c2)CC1 | 160 nM
O=[N+]([O-])c1ccc2c(c1)c1ccccc1n2Cc1ccccc1O | 1110 nM
CC(=O)Nc1ccc(CN2CCC(NC(=O)c3ccc(-c4cccc(OC(C)C)c4)s3)CC2)cc1 | 1460 nM
COc1ccc(CNC2CCN(C)CC2)cc1-c1ccc(S(=O)(=O)NCCc2ccccn2)c(F)c1 | 820 nM
O=C(Nc1ccc(-c2ccc(-c3nc4ccc(C(F)(F)F)cc4[nH]3)s2)cc1)c1ccoc1 | 850 nM
CCCCCn1c(Sc2ccc(C#N)c([N+](=O)[O-])c2)nnc1-c1ccccc1 | 860 nM
CC[C@H](C)CNC(=O)c1ccc(-c2cccc(CN3CCC(N4CCCC4)CC3)c2)nc1 | 790 nM
COc1ccc(N2CCN(CCCNC(=O)c3ccc(NC(=O)c4cc(Cl)cc(Cl)c4)cc3)CC2)c(OC)c1 | 270 nM
Cc1ccc(NC(=O)C(C)Sc2n[nH]c(-c3ccccc3Br)n2)cc1 (configuration not stated) | 1090 nM
CCCCc1cc(NCc2ccncc2)nc(Nc2ccc(C)cc2)n1 | 790 nM
CNS(=O)(=O)c1ccc2c(c1)nc(C1CCN(CC3CCC(NC(=O)/C=C/c4ccc(Cl)c(Cl)c4)CC3)CC1)n2C (configuration not stated) | 670 nM
CC(C)C[C@H](NC(=O)c1ccc(OCCN2CCOCC2)cc1)C(=O)N[C@H](/C=N/NC(=O)OC(C)(C)C)CCc1ccccc1 | 160 nM
O=C(Nc1ccc(Cl)cc1)c1ccc(CN2CCCN(Cc3ccc(F)cc3)CC2)cc1 | 970 nM

Compound | IC50
CN1CCC(NCc2ccc(-c3ccc(S(=O)(=O)NCc4ccccc4)s3)cc2)CC1 | 770 nM
Cc1[nH]c(C)c(-c2ccc(-c3ccc(Cl)cc3)nc2)c(=O)c1Br | 110 nM
N#Cc1c(N2CCN(c3ccc(F)cc3)CC2)nc(N)c2c(N)nc3c(c12)CC(=O)N3C1CC1 | 840 nM
CCOc1ccc(NC(=O)c2cccc(CN3CCCN(Cc4cccc(O)c4)CC3)c2)cc1 | 1080 nM
Cc1nc(N)nc(N)c1CCCOc1cccc(Cl)c1 | 480 nM
O=C(Nc1ccc(-c2nc3ccccc3[nH]2)cc1)C1CCN(Cc2ccc(F)cc2)CC1 | 840 nM
CC(C)(Cc1ccc(Cl)cc1)NCCCCCCNCCc1ccc(O)c(O)c1 | 1200 nM
CN(C)CC(O)C(O)(c1ccccc1)c1ccc(F)cc1 (configuration not stated) | 1150 nM
Cc1sc2nc(CN3CCCC3)nc(-n3c(NCCO)nc4ccccc43)c2c1C | 1240 nM
CCOc1cc(C(=O)NCCCN2CCCCC2C)ccc1-c1nc2ccc(Cl)cc2[nH]1 (configuration not stated) | 1070 nM
Oc1ccc2[nH]cc(C3CCN(CCC(c4ccccc4)c4ccccc4)CC3)c2c1 | 990 nM
Cc1ccc(-c2cc(C(=O)Nc3ccc(S(=O)(=O)N(C)Cc4ccccc4)cc3)[nH]n2)c(O)c1 | 850 nM
COc1ccc(-c2c(C(F)(F)F)nn(C)c2NC(=O)Nc2ccc(F)cc2F)cc1 | 800 nM
CC1(C)[C@H]2CC[C@@H](CNc3nc(NCCc4cnc[nH]4)nc(Nc4ccc(Oc5ccccc5)cc4)n3)[C@@H]1C2 | 670 nM
CCCCNC(=O)[C@@H](NC(=O)c1ccc(O)c(-c2ccc(Cl)c(Cl)c2)c1)C(C)C | 230 nM
CC(C)c1ccc(NC(=O)c2ccc(CN3CCCN(CC4CCCCC4)CC3)cc2)cc1 | 620 nM
CC1CN(c2ccc(C(=O)NCC3CC3)cc2NC(=O)OCc2ccccc2)CC(C)O1 (configuration not stated) | 1300 nM
CCCNc1ccc(-c2cc(C(N)=O)c3[nH]cc(C4CCN(S(=O)(=O)CC)CC4)c3c2)cn1 | 820 nM
Cc1c(Cl)ccc2c(C(=O)Nc3ccncc3)cc(-c3cccnc3)nc12 | 780 nM
Cc1cnc2ccc(NS(=O)(=O)c3ccc4c(Cl)cccc4c3)cc2c1N1CCNCC1 | 750 nM
COc1nc2c(CCN3CC[C@H](NCc4cc(C#N)c5c(c4)CCO5)[C@H](O)C3)ccnc2cc1F | 350 nM
FC(F)(F)c1ccc2nc(-c3ccc(-c4cccc(CNCc5cnn(-c6ccccc6)n5)c4)s3)[nH]c2c1 | 330 nM
O=C(Nc1ccc(OC2CCN(Cc3ccc(F)cc3)C2)c(Cl)c1)c1ccccc1 (configuration not stated) | 790 nM
OC1(CNCc2ccccc2)CCN(CCc2c[nH]c3ccc(F)cc23)CC1 | 710 nM
O=C(Nc1cc(C(F)(F)F)cc(C(F)(F)F)c1)N1CCC(CCN2CCC(c3c[nH]c4ccccc34)CC2)CC1 | 1260 nM

Compound | IC50
O=C(Nc1ccc(Cl)cc1)Nc1cccc(-c2cccc(-c3nc4ccc(C(F)(F)F)cc4[nH]3)c2)c1 | 230 nM
Cc1cccc2[nH]c(-c3ccc(-c4cccc(NC(=O)c5cccc(C(N)=O)c5)c4)cc3)nc12 | 1130 nM
COc1ccc2nc3cc(Cl)ccc3c(NCCCCN3CCNCC3)c2c1 | 180 nM
Cc1cc(N2CCCC2)nc(Nc2ccc(NC(=O)Nc3ccccc3)cc2)n1 | 160 nM
Cc1ccc(CN=C(N)NC(=O)c2nc(Cl)c(NCc3ccc(Cl)cc3)nc2N)c(C)c1 | 170 nM
COc1cccc2c(NN=Cc3cccc([N+](=O)[O-])c3)ccnc12 | 750 nM
COc1ccccc1CC1CCCN(C2CCC(NC(=O)c3cc4ccccc4[nH]3)CC2)C1 (configuration not stated) | 840 nM
O=C(c1cccc(-c2cccc(-c3nc4ccc(F)cc4[nH]3)c2)c1)N1CCCCC1CN1CCC(O)C1 (configuration not stated) | 880 nM
COc1ccccc1N1CCN(CCCCNC(=O)c2ccc(NC(=O)c3cc(Cl)cc(Cl)c3)cc2)CC1 | 460 nM
CCN(CC)CCN(Cc1ccc(-c2ccc(C(F)(F)F)cc2)cc1)C(=O)c1c[nH]c2ccc(Br)cc12 | 950 nM
Cc1cc(O)cc2c(C3CCN(CC4CCC(NC(=O)/C=C/c5ccccc5Cl)CC4)CC3)c[nH]c12 (configuration not stated) | 900 nM
COC(=O)c1cccc(CNCc2cccc(-c3cccc(-c4nc5ccccc5[nH]4)c3)c2)c1 | 500 nM
Cc1nnsc1C(=O)Nc1cccc(-c2cccc(-c3nc4c(C)cccc4[nH]3)c2)c1 | 270 nM
O=C(NCc1ccc(F)cc1)c1ccc(N2CCN(c3ccncc3)CC2)cn1 | 890 nM
CCCNCc1c(O)ccc2c(CNCCC)c(O)ccc12 | 600 nM
CCC1CCCCN1S(=O)(=O)c1ccc(OC)c(N2CCN(C(=O)C(Cl)(Cl)Cl)CC2)c1 (configuration not stated) | 1120 nM
COc1ccc(-c2nonc2NC(=O)c2cccc(C)c2)cc1OC | 810 nM
C[C@H](Cc1ccc(OCCNC[C@H](O)c2cccc(Cl)c2)cc1)NC[C@H](O)c1ccc(Cl)c(Cl)c1 | 960 nM
O=C(Nc1cccc(C(F)(F)F)c1)Nc1nc2ccc([N+](=O)[O-])cc2s1 | 690 nM
COc1cc(C(=O)N2CCOC(CCN3CCC[C@H]3C(=O)Nc3ccccc3)(c3ccc(Cl)c(Cl)c3)C2)cc(OC)c1OC (some centres not stated) | 730 nM
O=C(N[C@@H](Cc1ccccc1)C(=O)NC1CCCc2ccccc21)c1ccc(O)c(-c2cccc(C(F)(F)F)c2)c1 (some centres not stated) | 1000 nM
CCCCCN1CCCC1CNS(=O)(=O)c1cccc(C(=O)Nc2cccc(C(F)(F)F)c2)c1 (configuration not stated) | 770 nM
CCCCCCCCc1c(C)[nH]c(C)c(Br)c1=O | 820 nM
Cc1cc(NN=Cc2cccc([N+](=O)[O-])c2)c2ccc(C(F)(F)F)cc2n1 | 880 nM
C=CCN1C(=O)CN(S(=O)(=O)c2ccc(-n3nc(C)cc3C)cc2)C1=S | 940 nM

Compound | IC50
Cc1cccc2[nH]c(-c3ccc(-c4cccc(NC(=O)Nc5ccsc5)c4)cc3)nc12 | 800 nM
O=C(Nc1ccc(F)cc1)c1cnc(N2CCN(c3ccncc3)CC2)c(Cl)c1 | 740 nM
CCCc1cc(C(=O)N[C@@H](Cc2ccccc2)[C@H](O)CNC(C)(C)c2cccc(OC)c2)c(F)c(N2CCCC2=O)c1 | 100 nM
Cc1cc(-c2ccc(O)c(CNC3CCCCC3)c2)cnc1N | 200 nM
O=C(C=Cc1ccc(Cl)c(Cl)c1)NCCCCCN1CCC(CCCNC(=O)/C=C/c2ccccc2)CC1 | 590 nM
CCOc1cc(Cc2cnc(N)nc2N)cc(OCC)c1OCC | 280 nM
CCCCCc1ccc(N2C(N)=NC(N)=NC2(C)C)cc1 | 130 nM
O=C(c1cccc(-c2ccc(-c3nc4ccc(F)cc4[nH]3)s2)c1)N1CCCCC1CN1CCC(O)C1 (configuration not stated) | 720 nM
Oc1ccc(CCNc2nc(NCCCOc3cc(CN4CCCCC4)ccc3F)nc(N3CCNCC3)n2)cc1 | 1760 nM
NC(=O)C1CCN(Cc2ccc(-c3ccc(-c4nc5ccc(C(F)(F)F)cc5[nH]4)s3)cc2)CC1 | 540 nM
O=C(NC1CCN(Cc2ccccc2)CC1)c1ccc(-c2nc3cc(Cl)c(F)cc3[nH]2)cc1 | 250 nM
CCc1ccccc1N1CCN(CCCC(=O)c2ccc(NC(=O)c3ccc(Cl)cc3)cc2)CC1 | 1310 nM
CNC(=O)CNC(=O)COc1cccc2ccccc12 | 230 nM
Nc1c(I)cc(C(=O)Nc2ccc3nc4c(c(N)c3c2)CCCC4)cc1I | 140 nM
CCN(CC)CCOc1ccc(C(O)(C#CC(O)(c2ccc(C)cc2)c2ccc(OCCN(CC)CC)cc2)c2ccc(C)cc2)cc1 (configuration not stated) | 900 nM
CCCC[C@H](NC(=O)O[C@H](COc1ccc(OCc2ccccc2)cc1)C(C)(C)C)C(=O)C(=O)Nc1ccn[nH]1 | 990 nM
N#Cc1ccc(-c2cnc3ccc(NCc4ccc(S(N)(=O)=O)cc4)nn23)cc1 | 780 nM
CCC(NCc1ccc(-c2cncc(C(=O)NCC(C)C)c2)cc1)c1ccccc1 (configuration not stated) | 940 nM
COc1ccc(CCNCCCCCNCCc2ccc(Cl)cc2)cc1OC | 740 nM
Oc1ccc(CCCNc2nc(NCc3cccc4ccccc34)nc(N3CCCNCC3)n2)cc1 | 990 nM
CCC(O)c1ccc(Br)cc1NC(=O)c1cccc(Cl)c1 (configuration not stated) | 1020 nM
Cc1[nH]c(C)c(-c2ccc(Br)cc2)c(=O)c1Cl | 840 nM
